Results published in US20060088545A1, “Use of inhibitors of the protease of the human immunodeficiency virus (hiv) to block cell migration and/or invasion, tissue infiltration and oedema for the therary of diseases associated therewith” (priority 2001, published 2006).
“Also recorded” adds a separate entry of the source. Like-named read-outs stand apart in the source and are kept apart here.

Tests used:
[1] = tested on: angioproliferative KS-like lesions induced by KS cells; experiment: KS-like lesions induced by inoculation of KS cells in nude mice (drug pre-treatment); format: in vivo; details: KS cells 3×10^6; treatment starting 2 days before cell inoculation
Excerpt: At the time of sacrifice, the sites of inoculation were examined to check for the presence of macroscopic angioproliferative lesions as described in the key to FIG. 12 and Table 5.
These angioproliferative lesions are transient, of murine origin and are developed in response to cytokines, such as bFGF and VEGF, IL-1, IL-6 and others, released by the KS cells (Ensoli et al., 1989; Ensoli et al., 1994a; Ensoli et al., 1994b; Fiorelli et al., 1995; Samaniego et al., 1995; Samaniego et al., 1997; Sgadari et al., 2000). In fact, at least in initial phase, KS is a reactive angioproliferative diseases and not a true neoplasm (Ensoli and Sturzl, 1998).
At the time of sacrifice, the sites of inoculation were examined to check for the presence of macroscopic angioproliferative KS-like lesions as described in the key to Table 1. Here are listed the number (No.) of mice that developed lesions with respect to the number (No.) of mice inoculated, and the percentage (%) of mice that developed lesions.

[2] = tested on: IL-6; experiment: IL-6 production by KS cells (ELISA); format: cell-based, human; details: 0.1, 1 and 10 μM, 5 days + 24 hours
Protocol: After 24 hours of incubation, the supernatants of the cultures were tested by ELISA (R & D Systems, Minneapolis, Minn., USA) to determine the quantity of IL-6 present in the medium. The quantity of IL-6 is expressed in pg/ml of supernatant. The same tests were carried out for bFGF, VEGF, IL-1α and IL-1β by means of commercial ELISA kits.
KS cells secrete cytokines with an inflammatory, oedemigenic, angiogenic and proliferative activity with autocrine and paracrine effects (Ensoli and Stürzl, 1998). These factors mediate all the processes required for KS-like lesions formation (angiogenesis, cellular proliferation and invasion, inflammatory Infiltration, oedema) and vascular permeability and oedema induced by KS cells in nude mice. […] The quantity of bFGF, VEGF, IL-1 and IL-6 was dosed with immuno-enzymatic trials in the supernatants of the KS cells after 24 hours of culture in the absence of serum and in the continuous presence of the two HIV-PI (ELISA). […] Furthermore IL-6 plays a key role in the multicentric Cstleman's diseases and in the growth of lymphomas (Tosato et al., 1993; Peterson and Frizzera, 1993; Asou et al., 1998; Ramsay et al., 1994), another type of tumour whose incidence is reduced in patients treated with HIV-PI (International Collaboration on HIV and Cancer 2000).

[3] = tested on: lesions induced by bFGF and VEGF combined; experiment: Angiogenic KS-like lesions induced by bFGF and VEGF combined in nude mice; format: in vivo; details: bFGF 0.1 μg + VEGF 1 μg
Protocol: Since VEGF co-operates synergistically with bFGF in inducing angiogenesis and KS-lesion formation, mice (6 animals/group) were also inoculated with sub-optimal amounts of bFGF (0.1 μg) and VEGF (1 μg) combined, as previously performed to observe their synergistic effect (Samaniego et al 1998), and treated with HIV-PI as indicated above.
At sacrifice the sites of injection were examined for the presence of macroscopic angioproliferative lesions and tissue stained by H & E and analysed microscopically. Here are listed the number (No.) of mice that developed lesions with respect to the number (No.) of mice inoculated, and the percentage (%) of mice that developed lesions.

[4] = tested on: T cell leukaemia (Jurkat) cells; experiment: Tumour lesions induced by Jurkat cells in nude mice; format: in vivo; details: 20×10^6 cells/site; daily treatment
Protocol: The treatment with HIV-PI or saline solution continued until sacrifice. The size of the lesions present at the injection site was evaluated daily by caliper measurement. External lesion area was then calculated as the product of the two major lesion diameters. The mean size (cm^2) of the lesions present at the injection site is shown.
To determine whether HIV-PI could inhibit the growth of malignant solid and lymphoid tumours, nude mice were inoculated with hepato-carcinoma cells (SK-Hep-1), lung carcinoma cells (A549), breast adeno-carcinoma cells (MDA-MB-468), myelo-monocytic leukaemia cells (U937), and T lymhocytic leukaemia cells (Jurkat).

[5] = tested on: angiogenesis induced by bFGF or VEGF in the chorioallantoic membrane; details: for VEGF-induced angiogenesis, % of the untreated VEGF control / bFGF-induced angiogenesis, % of the untreated bFGF control / Average vessel (number/mm^2 ± SD): HIV-PI 10 μM; for basal CAM vascularization: drug administered alone; for toxicity in CAM: in vivo
Protocol: CAM assays were performed with 1 mm^3 sterilized gelatin sponges (Gelfoam; Upjohn Co, Kalamazoo, Mich.) adsorbed with bFGF or VEGF (1 μg or 100 ng, respectively) in 5 μl of PBS, and with buffer, HIV-PI (10 μM) or taxol (250 nM) (Bristol-Myers Squibb Co., Princeton, N.J.) as described (Ribatti et al, Int. J. Dev. Biol., 1996). CAM were examined daily until day 12 under an Olympus SZX9 stereomicroscope. Images (1024×1024 pixels) were captured at a distance of 2 mm from the edge of the sponge using a cooled digital CCD Hamamatsu ORCA camera (Hamamatsu Photonics Italia, Arese, Italy). Vessel number was quantified with the ImageProPlus 4.0 imaging software (Media Cybernetics, Silver Spring, Md.) in 3 randomly selected areas per egg ([…]).
Results are expressed as the average number of vessels/mm^2±SD from the indicated number of CAM per experimental condition.

[6] = tested on: breast carcinoma (MDA-MB468) cells; experiment: Invasion assay of MDA-MB468 cells in response to bFGF; format: cell-based, human; details: 0.1, 1 or 10 μM
Protocol: Shown is the result of a representative invasion assay performed on the breast carcinoma cells MDA-MB468. […] The invasion assays were performed in the Boyden chamber. Polycarbonate filters ([…]; Nucleoprobe, Cabin John, Md.) were coated first with collagen IV and then with Matrigel (Collaborative Biomedical Products) as described previously (Barillari et al., 1999b). […] Human recombinant bFGF (50 ng/ml) was placed in the lower compartment as chemoattractant. […] Louis, Mo.). Ten random filter fields were counted by light microscopy as described previously (Barillari et al., 1999b). Assays were repeated two times.

[7] = tested on: KS-like lesions induced by KS cells (KS12); experiment: Regression of KS-like lesions induced by KS cells in nude mice, no drug pre-treatment; format: in vivo; details: treatment started on the day of KS cell inoculation, 5 days
Protocol: Indinavir and saquinavir can also promote KS regression in the absence of any drug pre-treatment. […] Treatment was then continued for 5 days, until sacrifice. The mean size (cm^2) of the lesions present at the injection site evaluated by daily caliper measurement and calculated as the product of the two major lesion diameters is shown.
To determine whether HIV-PI can also promote KS regression in the absence of any drug pre-treatment, experiments were also performed by treating mice with HIV-PI at the time of KS cell inoculation.

Structure (SMILES)	No. of mice with macroscopic lesions/No. of inoculated mice [1]	mice with macroscopic lesions (%) [1]	production of IL-6 by KS cells [2]	production of IL-6 by KS cells ([2]; listed as indinavir)	No. of mice developing lesions/No. of mice [3]	mice developing lesions (%) [3]	development of tumour lesions (lesion size) [4]	VEGF-induced angiogenesis, % of the untreated VEGF control [5]	bFGF-induced angiogenesis, % of the untreated bFGF control [5]	Average vessel (number/mm^2 ± SD) ([5]; VEGF 100 ng)	Average vessel (number/mm^2 ± SD) ([5]; bFGF 1 μg, taxol 250 nM)	basal CAM vascularization [5]	toxicity in CAM [5]	invasive capacity in response to bFGF [6]	regression of KS-like lesions (lesion size) [7]
CC(C)(C)NC(=O)[C@@H]1CN(Cc2cccnc2)CCN1C[C@@H](O)C[C@@H](Cc1ccccc1)C(=O)N[C@H]1c2ccccc2C[C@H]1O [Indinavir, indinavir]	7/16	43%	inhibited	reduced	2/6	33%	inhibit	36%	42%	7.70 ± 2.52 number/mm^2	8.22 ± 2.54 number/mm^2	did not affect	not associated with toxicity	inhibit	promote the regression
CC(C)(C)NC(=O)[C@@H]1C[C@@H]2CCCC[C@@H]2CN1C[C@@H](O)[C@H](Cc1ccccc1)NC(=O)[C@H](CC(N)=O)NC(=O)c1ccc2ccccc2n1 [Saquinavir, saquinavir]	4/16	25%	reduced; also recorded: inhibited	–	1/6	17%	inhibit	11%	19%	5.39 ± 0.67 number/mm^2	6.08 ± 1.84 number/mm^2	did not affect	not associated with toxicity	inhibit	promote the regression
